Measurements from ChEMBL document CHEMBL1949611, “Functional characterization of rat glutaryl-CoA dehydrogenase and its comparison with straight-chain acyl-CoA dehydrogenase” (Bioorg Med Chem Lett, 2011).
pKi: −log10 of the molar value. The source made the active and inactive calls. No cut-off for these calls is given here.

Key:
[1] = species: Rattus norvegicus; experiment: Irreversible inhibition of rat glutaryl-co A dehydrogenase by dialysis method
[2] = species: Rattus norvegicus; experiment: Irreversible inhibition of rat glutaryl-co A dehydrogenase by HPLC analysis
[3] = species: Rattus norvegicus; experiment: Time-dependent inhibition of rat glutaryl-co A dehydrogenase after 160 mins by spectrophotometry
[4] = (§1) Inhibition of rat glutaryl-co A dehydrogenase by spectrophotometry
[5] = species: Rattus norvegicus; experiment: as §1; conditions: for inhibition: TDE = time-dependent effect
[6] = species: Rattus norvegicus; experiment: Ratio of Kcat to Km for rat glutaryl-co A dehydrogenase expressed in Escherichia coli BL21
[7] = species: Rattus norvegicus; experiment: Activity of rat glutaryl-co A dehydrogenase expressed in Escherichia coli BL21
[8] = species: Rattus norvegicus; experiment: Activity of rat glutaryl-co A dehydrogenase E370Q mutant expressed in Escherichia coli BL21
[9] = species: Rattus norvegicus; experiment: Activity of rat glutaryl-co A dehydrogenase E370A mutant expressed in Escherichia coli BL21
[10] = species: Rattus norvegicus; experiment: Time-dependent inhibition of rat glutaryl-co A dehydrogenase after 30 mins by spectrophotometry

kcat/Km (10'-3/microM/s) [6]	Km [7]	Vmax [7]	kcat [7]	kcat/Km [6]	Structure (SMILES)	also measured
					CCC/C=C/C#CC(=O)SCCNC(=O)CCNC(=O)C(O)C(C)(C)COP(=O)(O)OP(=O)(O)OC[C@H]1O[C@@H](n2cnc3c(N)ncnc32)[C@H](O)[C@@H]1OP(=O)(O)O (stereo not given in full)	inhibition [1]: Active; inhibition [2]: Active; inhibition [3]: 20%; pKi [4]: 4.37; Kinact [5]: 0.024 min⁻¹; inhibition [5]: tde
1.3	66 µM	113 nmol/mg/min	0.083 s⁻¹		CCCC/C=C\CC(=O)SCCNC(=O)CCNC(=O)C(O)C(C)(C)COP(=O)(O)OP(=O)(O)OC[C@H]1O[C@@H](n2cnc3c(N)ncnc32)[C@H](O)[C@@H]1OP(=O)(O)O (stereo not given in full)	
4.9	49 µM	331 nmol/mg/min	0.24 s⁻¹		CC/C=C\CC(=O)SCCNC(=O)CCNC(=O)C(O)C(C)(C)COP(=O)(O)OP(=O)(O)OC[C@H]1O[C@@H](n2cnc3c(N)ncnc32)[C@H](O)[C@@H]1OP(=O)(O)O (stereo not given in full)	kcat [8]: 0.0021 s⁻¹; kcat [9]: 0.00078 s⁻¹
					CCCCCC#CC(=O)SCCNC(=O)CCNC(=O)C(O)C(C)(C)COP(=O)(O)OP(=O)(O)OC[C@H]1O[C@@H](n2cnc3c(N)ncnc32)[C@H](O)[C@@H]1OP(=O)(O)O (stereo not given in full)	inhibition [1]: Active; inhibition [10]: 2%; inhibition [2]: Active; pKi [4]: 4.74; Kinact [5]: 0.2 min⁻¹; inhibition [5]: tde
	12 µM		2.7 s⁻¹	230000 M⁻¹ s⁻¹	CCCC(=O)SCCNC(=O)CCNC(=O)C(O)C(C)(C)COP(=O)(O)OP(=O)(O)OC[C@H]1O[C@@H](n2cnc3c(N)ncnc32)[C@H](O)[C@@H]1OP(=O)(O)O (stereo not given in full)	
1.9	51 µM	136 nmol/mg/min	0.099 s⁻¹		CC/C=C/CC(=O)SCCNC(=O)CCNC(=O)C(O)C(C)(C)COP(=O)(O)OP(=O)(O)OC[C@H]1O[C@@H](n2cnc3c(N)ncnc32)[C@H](O)[C@@H]1OP(=O)(O)O (stereo not given in full)	
	88 µM	62 nmol/mg/min	0.046 s⁻¹	5.2 ×10⁻⁴ /µM/s	CCCCCC/C=C\CC(=O)SCCNC(=O)CCNC(=O)C(O)C(C)(C)COP(=O)(O)OP(=O)(O)OC[C@H]1O[C@@H](n2cnc3c(N)ncnc32)[C@H](O)[C@@H]1OP(=O)(O)O (stereo not given in full)	
	28 µM		1.1 s⁻¹		CCCCCCCC(=O)SCCNC(=O)CCNC(=O)C(O)C(C)(C)COP(=O)(O)OP(=O)(O)OC[C@H]1O[C@@H](n2cnc3c(N)ncnc32)[C@H](O)[C@@H]1OP(=O)(O)O (stereo not given in full)	kcat/Km (10'-2/microM/s) [6]: 3.9
	74 µM	27 nmol/mg/min	0.02 s⁻¹	2.7 ×10⁻⁴ /µM/s	CCCCCC/C=C/CC(=O)SCCNC(=O)CCNC(=O)C(O)C(C)(C)COP(=O)(O)OP(=O)(O)OC[C@H]1O[C@@H](n2cnc3c(N)ncnc32)[C@H](O)[C@@H]1OP(=O)(O)O (stereo not given in full)	
	20 µM		2.1 s⁻¹	110000 M⁻¹ s⁻¹	CCCCCC(=O)SCCNC(=O)CCNC(=O)C(O)C(C)(C)COP(=O)(O)OP(=O)(O)OC[C@H]1O[C@@H](n2cnc3c(N)ncnc32)[C@H](O)[C@@H]1OP(=O)(O)O (stereo not given in full)	
	58 µM	56 nmol/mg/min	0.041 s⁻¹	7.1 ×10⁻⁴ /µM/s	CCCC/C=C/CC(=O)SCCNC(=O)CCNC(=O)C(O)C(C)(C)COP(=O)(O)OP(=O)(O)OC[C@H]1O[C@@H](n2cnc3c(N)ncnc32)[C@H](O)[C@@H]1OP(=O)(O)O (stereo not given in full)	
3.3	54 µM		0.18 s⁻¹		CCCCCCCCCC(=O)SCCNC(=O)CCNC(=O)C(O)C(C)(C)COP(=O)(O)OP(=O)(O)OC[C@H]1O[C@@H](n2cnc3c(N)ncnc32)[C@H](O)[C@@H]1OP(=O)(O)O (stereo not given in full)	
